# ChEMBL document CHEMBL4715724, “Novel 5-substituted-2-anilinoquinolines with 3-(morpholino or 4-methylpiperazin-1-yl)propoxy moiety as broad spectrum antiproliferative agents: Synthesis, cell based assays and kinase screening” (Bioorg Med Chem Lett, 2016)
# Experiments:
# [1] = target: Ribosomal protein S6 kinase alpha-1 (Homo sapiens) (UniProt Q15418); experiment: Inhibition of recombinant full length N-terminal His6-tagged human RSK1 expressed in Sf21 insect cells at 10 uM relative to control
# [2] = system: Panel colon (Carcinoma cell lines); experiment: cells; format: functional; settings: Homo sapiens, time 48 hrs
# Description: Growth inhibition of human Panel colon (Carcinoma cell lines) incubated for 48 hrs by sulforhodamine B assay
# CCRF-CEM = experiment: cells; format: functional; settings: Homo sapiens, time 48 hrs
# Description: Growth inhibition of human CCRF-CEM cells incubated for 48 hrs by sulforhodamine B assay
# [3] = target: Vascular endothelial growth factor receptor 2 (Homo sapiens) (UniProt P35968); experiment: Inhibition of N-terminal His6-tagged recombinant human KDR (790 to end residues) expressed in baculovirus infected Sf21 cells at 10 uM relative to control
# [4] = target: ALK tyrosine kinase receptor (Homo sapiens) (UniProt Q9UM73); experiment: Inhibition of N-terminal His6-tagged human recombinant ALK (1058 to end residues) expressed in baculovirus infected Sf21 cells assessed as residual activity at 10 uM relative to control
# [5] = target: MAP kinase-activated protein kinase 2 (Homo sapiens) (UniProt P49137); experiment: Inhibition of human MAPKAPK2 expressed in Escherichia coli at 10 uM relative to control
# [6] = target: Epidermal growth factor receptor (Homo sapiens) (UniProt P00533); experiment: Inhibition of N-terminal GST-tagged human EGFR (696 to end residues) expressed in baculovirus-infected Sf21 cells assessed as residual activity at 10 uM relative to control
# HOP-62 = experiment: cells; format: functional; settings: Homo sapiens, time 48 hrs
# Description: Growth inhibition of human HOP-62 cells incubated for 48 hrs by sulforhodamine B assay
# NCI-H460 = experiment: cells; format: functional; settings: Homo sapiens, time 48 hrs
# Description: Growth inhibition of human NCI-H460 cells incubated for 48 hrs by sulforhodamine B assay
# [7] = target: Serine/threonine-protein kinase mTOR (Homo sapiens) (UniProt P42345); experiment: Inhibition of human mTOR at 10 uM relative to control
# [8] = target: Ephrin type-B receptor 2 (Homo sapiens) (UniProt P29323); experiment: Inhibition of N-terminal His6-tagged human EphB2 (560 to end residues) expressed in baculovirus-infected Sf21 cells assessed as residual activity at 10 uM relative to control
# OVCAR-8 = experiment: cells; format: functional; settings: Homo sapiens, time 48 hrs
# Description: Growth inhibition of human OVCAR-8 cells incubated for 48 hrs by sulforhodamine B assay
# [9] = system: Panel melanoma (Carcinoma cell lines); experiment: cells; format: functional; settings: Homo sapiens, time 48 hrs
# Description: Growth inhibition of human Panel melanoma (Carcinoma cell lines) incubated for 48 hrs by sulforhodamine B assay
# KM12 = experiment: cells; format: functional; settings: Homo sapiens, time 48 hrs
# Description: Growth inhibition of human KM12 cells incubated for 48 hrs by sulforhodamine B assay
# [10] = target: Cyclin-dependent kinase 2/cyclin E1 (Homo sapiens) (UniProt P24864+P24941); experiment: Inhibition of full length C-terminal His6-tagged human CDK2/full length N-terminal GST-tagged human Cyclin E expressed in baculovirus infected Sf21 insect cells assessed as residual activity at 10 uM relative to control
# UO-31 = experiment: cells; format: functional; settings: Homo sapiens, time 48 hrs
# Description: Growth inhibition of human UO-31 cells incubated for 48 hrs by sulforhodamine B assay
# MCF7 = experiment: cells; format: functional; settings: Homo sapiens, time 48 hrs
# Description: Growth inhibition of human MCF7 cells incubated for 48 hrs by sulforhodamine B assay
# [11] = target: PI3-kinase p110-alpha/p85-alpha (Homo sapiens) (UniProt P27986+P42336); experiment: Inhibition of p110 alpha/p85 alpha (unknown origin) at 10 uM relative to control; format: protein-complex assay
# [12] = Cytotoxicity against human HFF-1 cells assessed as cell growth inhibition at 1 uM by MTT assay relative to control; format: cell-based; settings: read-out: GI
# UACC-257 = experiment: cells; format: functional; settings: Homo sapiens, time 48 hrs
# Description: Growth inhibition of human UACC-257 cells incubated for 48 hrs by sulforhodamine B assay
# [13] = target: Mitogen-activated protein kinase 1 (Homo sapiens) (UniProt P28482); experiment: Inhibition of recombinant full length N-terminal GST-tagged human MAPK2 expressed in Escherichia coli at 10 uM relative to control
# NCI-H226 = experiment: cells; format: functional; settings: Homo sapiens, time 48 hrs
# Description: Growth inhibition of human NCI-H226 cells incubated for 48 hrs by sulforhodamine B assay
# [14] = system: Serine/threonine-protein kinase B-raf (Homo sapiens), P15056 [V600E]; experiment: Inhibition of recombinant N-terminal GST-tagged human BRAF V599E mutant (417 to 766 residues) expressed in Sf9 cells assessed as residual activity at 10 uM relative to control
# [15] = target: Proto-oncogene tyrosine-protein kinase ROS (Homo sapiens) (UniProt P08922); experiment: Inhibition of recombinant N-terminal His6-tagged human ROS (1883 to end residues) expressed in baculovirus infected Sf21 insect cells at 10 uM relative to control
# [16] = system: PI3-kinase p110-alpha/p85-alpha (Homo sapiens), P27986+P42336 [E542K]; experiment: Inhibition of p110alpha/p85alpha E542K mutant (unknown origin) at 10 uM relative to control; format: protein-complex assay
# SK-MEL-28 = experiment: cells; format: functional; settings: Homo sapiens, time 48 hrs
# Description: Growth inhibition of human SK-MEL-28 cells incubated for 48 hrs by sulforhodamine B assay
# OVCAR-4 = experiment: cells; format: functional; settings: Homo sapiens, time 48 hrs
# Description: Growth inhibition of human OVCAR-4 cells incubated for 48 hrs by sulforhodamine B assay
# [17] = target: Serine/threonine-protein kinase 3 (Homo sapiens) (UniProt Q13188); experiment: Inhibition of recombinant N-terminal His6-tagged human MST2 (2 to end residues) expressed in baculovirus infected Sf21 insect cells at 10 uM relative to control
# LOX IMVI = experiment: Growth inhibition of human LOX IMVI cells assessed as growth percentage at 10 uM measured after 48 hrs by sulforhodamine B assay relative to control; format: functional; settings: read-out: Activity
# [18] = target: Macrophage colony-stimulating factor 1 receptor (Homo sapiens) (UniProt P07333); experiment: Inhibition of recombinant N-terminal His6-tagged human FMS (538 to end residues) expressed in baculovirus infected Sf21 insect cells assessed as residual activity at 10 uM relative to control
# [19] = system: PI3-kinase p110-alpha/p85-alpha (Homo sapiens), P27986+P42336 [E545K]; experiment: Inhibition of p110alpha/p85alpha E545K mutant (unknown origin) at 10 uM relative to control; format: protein-complex assay
# [20] = target: Insulin-like growth factor 1 receptor (Homo sapiens) (UniProt P08069); experiment: Inhibition of human IGF1R assessed as residual activity at 10 uM relative to control
# SF-295 = experiment: cells; format: functional; settings: Homo sapiens, time 48 hrs
# Description: Growth inhibition of human SF-295 cells incubated for 48 hrs by sulforhodamine B assay
# [21] = target: Tyrosine-protein kinase BTK (Homo sapiens) (UniProt Q06187); experiment: Inhibition of recombinant full length N-terminal His6-tagged human BTK expressed in baculovirus infected Sf21 cells assessed as residual activity at 10 uM relative to control
# [22] = target: Fibroblast growth factor receptor 1 (Homo sapiens) (UniProt P11362); experiment: Inhibition of human FGFR1 assessed as residual activity at 10 uM relative to control
# [23] = system: Panel NCI-60 (60 carcinoma cell lines); experiment: cells; format: functional; settings: Homo sapiens, time 48 hrs
# Description: Growth inhibition of human Panel NCI-60 (60 carcinoma cell lines) incubated for 48 hrs by sulforhodamine B assay
# [24] = system: PI3-kinase p110-alpha/p85-alpha (Homo sapiens), P27986+P42336 [H1047R]; experiment: Inhibition of p110alpha/p85alpha H1047R mutant (unknown origin) at 10 uM relative to control; format: protein-complex assay
# [25] = target: Calcium/calmodulin-dependent protein kinase type II subunit beta (Homo sapiens) (UniProt Q13554); experiment: Inhibition of CaMK2beta (unknown origin) at 10 uM relative to control
# [26] = read-out: LC50 (the source's name)
# Sequence of Ribosomal protein S6 kinase alpha-1 (Homo sapiens) (Q15418 whole entry): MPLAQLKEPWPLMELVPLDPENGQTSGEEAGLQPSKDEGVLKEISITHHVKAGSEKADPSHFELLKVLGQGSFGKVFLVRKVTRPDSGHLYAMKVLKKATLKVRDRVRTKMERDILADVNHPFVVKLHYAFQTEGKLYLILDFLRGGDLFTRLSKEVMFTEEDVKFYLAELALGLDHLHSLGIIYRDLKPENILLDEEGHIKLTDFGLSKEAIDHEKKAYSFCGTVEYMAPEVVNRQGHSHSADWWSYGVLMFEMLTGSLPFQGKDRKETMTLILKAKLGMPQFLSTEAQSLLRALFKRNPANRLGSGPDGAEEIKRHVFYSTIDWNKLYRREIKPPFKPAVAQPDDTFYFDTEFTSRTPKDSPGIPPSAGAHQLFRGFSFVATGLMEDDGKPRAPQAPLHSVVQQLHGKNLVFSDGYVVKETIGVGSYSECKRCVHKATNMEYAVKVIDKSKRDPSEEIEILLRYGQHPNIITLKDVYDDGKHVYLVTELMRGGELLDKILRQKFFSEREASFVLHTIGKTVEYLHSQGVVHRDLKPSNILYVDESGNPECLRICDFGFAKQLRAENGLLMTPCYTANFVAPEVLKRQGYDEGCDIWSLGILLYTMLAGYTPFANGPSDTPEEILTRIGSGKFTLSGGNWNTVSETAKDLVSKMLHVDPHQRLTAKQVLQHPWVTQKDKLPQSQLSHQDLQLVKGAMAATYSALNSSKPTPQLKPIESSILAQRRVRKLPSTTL
# Sequence of Serine/threonine-protein kinase B-raf (Homo sapiens), P15056 [V600E] (P15056 whole entry V600E, the tested form may be a part): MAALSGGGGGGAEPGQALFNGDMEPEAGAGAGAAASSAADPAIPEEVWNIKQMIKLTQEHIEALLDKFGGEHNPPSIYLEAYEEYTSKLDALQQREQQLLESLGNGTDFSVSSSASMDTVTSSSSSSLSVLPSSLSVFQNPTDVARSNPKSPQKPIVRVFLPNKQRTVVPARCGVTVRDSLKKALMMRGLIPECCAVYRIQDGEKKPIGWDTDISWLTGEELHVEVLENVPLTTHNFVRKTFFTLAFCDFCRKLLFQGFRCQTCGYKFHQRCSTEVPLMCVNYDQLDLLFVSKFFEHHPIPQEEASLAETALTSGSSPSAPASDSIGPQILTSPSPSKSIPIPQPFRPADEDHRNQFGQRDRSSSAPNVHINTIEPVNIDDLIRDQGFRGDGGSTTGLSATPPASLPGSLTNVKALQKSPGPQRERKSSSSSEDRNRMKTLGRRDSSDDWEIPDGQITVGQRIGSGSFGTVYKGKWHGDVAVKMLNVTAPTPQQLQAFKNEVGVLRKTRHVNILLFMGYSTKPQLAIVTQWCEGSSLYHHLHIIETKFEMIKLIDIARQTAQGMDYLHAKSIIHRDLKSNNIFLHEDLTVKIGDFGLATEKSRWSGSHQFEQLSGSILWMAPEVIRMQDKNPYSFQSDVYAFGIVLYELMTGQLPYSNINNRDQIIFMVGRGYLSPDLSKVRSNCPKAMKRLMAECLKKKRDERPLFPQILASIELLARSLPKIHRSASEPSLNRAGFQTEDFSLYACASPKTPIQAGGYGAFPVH
# Sequence of Calcium/calmodulin-dependent protein kinase type II subunit beta (Homo sapiens) (Q13554 whole entry): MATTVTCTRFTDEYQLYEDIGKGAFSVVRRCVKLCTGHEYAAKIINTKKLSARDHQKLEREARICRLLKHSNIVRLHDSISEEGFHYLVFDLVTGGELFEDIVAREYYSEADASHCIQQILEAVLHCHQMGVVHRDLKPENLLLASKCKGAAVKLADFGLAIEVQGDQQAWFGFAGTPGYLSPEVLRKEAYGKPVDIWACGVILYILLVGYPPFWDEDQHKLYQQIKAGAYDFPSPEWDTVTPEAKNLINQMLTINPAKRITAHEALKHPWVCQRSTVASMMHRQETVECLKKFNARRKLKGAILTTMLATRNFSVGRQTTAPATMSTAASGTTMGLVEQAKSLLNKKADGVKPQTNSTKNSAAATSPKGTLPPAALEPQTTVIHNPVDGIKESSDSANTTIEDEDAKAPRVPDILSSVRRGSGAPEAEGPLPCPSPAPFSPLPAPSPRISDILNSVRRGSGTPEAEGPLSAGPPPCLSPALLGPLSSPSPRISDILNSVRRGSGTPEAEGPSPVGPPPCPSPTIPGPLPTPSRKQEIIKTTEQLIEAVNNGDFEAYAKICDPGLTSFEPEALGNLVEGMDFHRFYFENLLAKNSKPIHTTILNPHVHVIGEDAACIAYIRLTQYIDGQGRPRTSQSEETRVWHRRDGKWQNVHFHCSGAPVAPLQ
# Sequence of Tyrosine-protein kinase BTK (Homo sapiens) (Q06187 whole entry): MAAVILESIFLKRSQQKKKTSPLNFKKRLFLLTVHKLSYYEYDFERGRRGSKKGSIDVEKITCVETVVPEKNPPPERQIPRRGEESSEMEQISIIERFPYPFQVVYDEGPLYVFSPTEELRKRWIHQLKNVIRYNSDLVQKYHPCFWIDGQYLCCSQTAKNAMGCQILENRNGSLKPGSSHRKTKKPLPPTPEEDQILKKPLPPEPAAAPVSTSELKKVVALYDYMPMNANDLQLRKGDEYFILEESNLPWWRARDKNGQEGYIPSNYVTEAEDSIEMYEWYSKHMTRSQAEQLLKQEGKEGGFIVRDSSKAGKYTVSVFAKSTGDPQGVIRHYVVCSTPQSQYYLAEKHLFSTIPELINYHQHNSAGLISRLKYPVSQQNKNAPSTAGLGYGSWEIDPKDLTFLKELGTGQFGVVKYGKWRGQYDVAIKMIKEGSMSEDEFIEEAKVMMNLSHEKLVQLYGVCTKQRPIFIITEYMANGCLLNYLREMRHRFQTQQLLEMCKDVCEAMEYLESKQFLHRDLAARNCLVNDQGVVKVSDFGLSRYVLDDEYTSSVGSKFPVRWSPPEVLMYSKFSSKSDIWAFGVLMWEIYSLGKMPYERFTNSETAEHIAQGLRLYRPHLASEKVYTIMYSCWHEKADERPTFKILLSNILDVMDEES
# Sequence of Fibroblast growth factor receptor 1 (Homo sapiens) (P11362 22-822 limits assumed): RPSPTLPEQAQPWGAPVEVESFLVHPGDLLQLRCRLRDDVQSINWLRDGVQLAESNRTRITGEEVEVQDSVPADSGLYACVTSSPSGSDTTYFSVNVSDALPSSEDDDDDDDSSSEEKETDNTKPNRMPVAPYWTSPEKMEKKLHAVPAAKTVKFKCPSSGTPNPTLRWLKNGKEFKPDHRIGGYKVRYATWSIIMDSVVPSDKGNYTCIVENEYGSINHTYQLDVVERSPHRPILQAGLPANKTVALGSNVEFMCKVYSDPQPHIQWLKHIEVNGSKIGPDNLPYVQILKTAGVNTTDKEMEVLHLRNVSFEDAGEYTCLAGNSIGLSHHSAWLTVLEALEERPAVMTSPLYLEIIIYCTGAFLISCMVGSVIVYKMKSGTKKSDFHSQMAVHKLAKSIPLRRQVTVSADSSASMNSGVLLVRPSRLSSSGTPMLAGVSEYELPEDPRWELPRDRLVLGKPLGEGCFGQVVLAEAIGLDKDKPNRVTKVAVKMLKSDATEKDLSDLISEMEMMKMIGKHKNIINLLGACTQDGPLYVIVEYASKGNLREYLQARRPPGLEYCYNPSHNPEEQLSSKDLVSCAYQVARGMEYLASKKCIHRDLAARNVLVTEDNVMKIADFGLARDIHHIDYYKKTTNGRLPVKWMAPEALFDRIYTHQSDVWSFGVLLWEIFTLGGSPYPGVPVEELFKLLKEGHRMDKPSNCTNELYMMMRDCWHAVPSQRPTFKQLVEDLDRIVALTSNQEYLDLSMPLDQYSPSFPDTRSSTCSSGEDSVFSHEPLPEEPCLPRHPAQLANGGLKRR
# Sequence of Epidermal growth factor receptor (Homo sapiens) (P00533 whole entry): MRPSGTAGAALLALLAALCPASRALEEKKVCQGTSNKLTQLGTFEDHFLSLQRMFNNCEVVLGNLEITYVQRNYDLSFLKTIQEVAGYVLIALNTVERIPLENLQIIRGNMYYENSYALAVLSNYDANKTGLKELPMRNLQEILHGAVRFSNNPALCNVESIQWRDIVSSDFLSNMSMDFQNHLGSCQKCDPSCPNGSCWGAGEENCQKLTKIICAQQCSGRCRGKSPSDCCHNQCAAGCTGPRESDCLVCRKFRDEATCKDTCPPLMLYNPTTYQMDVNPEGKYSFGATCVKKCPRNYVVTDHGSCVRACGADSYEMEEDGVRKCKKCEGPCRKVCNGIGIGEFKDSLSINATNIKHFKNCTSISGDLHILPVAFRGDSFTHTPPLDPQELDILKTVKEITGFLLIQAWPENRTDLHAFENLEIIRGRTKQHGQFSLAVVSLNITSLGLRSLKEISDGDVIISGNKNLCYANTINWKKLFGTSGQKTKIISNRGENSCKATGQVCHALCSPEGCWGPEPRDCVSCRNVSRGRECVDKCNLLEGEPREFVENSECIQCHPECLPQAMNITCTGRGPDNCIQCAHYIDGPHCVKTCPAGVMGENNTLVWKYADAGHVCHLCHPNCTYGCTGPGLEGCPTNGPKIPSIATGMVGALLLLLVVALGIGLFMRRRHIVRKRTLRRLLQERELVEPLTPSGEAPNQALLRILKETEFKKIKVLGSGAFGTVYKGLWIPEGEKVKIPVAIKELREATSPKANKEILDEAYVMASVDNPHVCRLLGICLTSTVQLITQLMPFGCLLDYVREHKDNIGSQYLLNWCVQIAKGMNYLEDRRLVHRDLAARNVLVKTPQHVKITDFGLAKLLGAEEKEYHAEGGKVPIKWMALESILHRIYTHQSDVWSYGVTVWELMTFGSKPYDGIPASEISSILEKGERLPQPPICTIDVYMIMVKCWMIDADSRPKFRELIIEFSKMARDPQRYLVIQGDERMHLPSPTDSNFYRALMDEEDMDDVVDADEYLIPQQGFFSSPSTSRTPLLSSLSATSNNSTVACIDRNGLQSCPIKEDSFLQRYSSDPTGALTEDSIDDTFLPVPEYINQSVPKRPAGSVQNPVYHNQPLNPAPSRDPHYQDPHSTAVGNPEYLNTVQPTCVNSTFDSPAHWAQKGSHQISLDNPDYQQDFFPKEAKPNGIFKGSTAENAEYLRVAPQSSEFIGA
structure (smiles),measurement,setting,value
CN1CCN(CCCOc2cccc3nc(Nc4ccc(Cl)c(C(F)(F)F)c4)ccc23)CC1,inhibition,[1],< 60%
same,GI50,[2],1580 nM
same,TGI,[2],3170 nM
same,CC50,[2]; [26],6270 nM
same,GI50,CCRF-CEM,1210 nM
same,inhibition,[3],< 60%
same,Activity,[4],< 60%
same,inhibition,[5],< 60%
same,Activity,[6],< 60%
same,GI50,HOP-62,1700 nM
same,GI50,NCI-H460,1720 nM
same,inhibition,[7],< 60%
same,Activity,[8],< 60%
same,GI50,OVCAR-8,1920 nM
same,GI50,[9],1710 nM
same,LC50,[9],6700 nM
same,TGI,[9],3380 nM
same,GI50,KM12,1740 nM
same,Activity,[10],< 60%
same,GI50,UO-31,1460 nM
same,GI50,MCF7,1410 nM
same,inhibition,[11],< 60%
same,inhibition at 1 µM,[12],12.7%
same,GI50,UACC-257,1720 nM
same,inhibition,[13],< 60%
same,GI50,NCI-H226,2070 nM
same,Activity,[14],< 60%
same,inhibition,[15],< 60%
same,inhibition,[16],< 60%
same,GI50,SK-MEL-28,1390 nM
same,GI50,OVCAR-4,2730 nM
same,inhibition,[17],< 60%
same,growth at 10 µM,LOX IMVI,-5.77%
same,Activity,[18],< 60%
same,inhibition,[19],< 60%
same,Activity,[20],< 60%
same,GI50,SF-295,1800 nM
same,Activity,[21],< 60%
same,Activity,[22],< 60%
same,GI50,[23],1620 nM
same,TGI,[23],3470 nM
same,CC50,[23]; [26],8130 nM
same,inhibition,[24],< 60%
same,inhibition,[25],< 60%
